Data set [1] relates to HT29 human colon cancer cells. Description: Cell killing activity of camptothecins (CCK-8). It is filed as cell-based. The following applies: HT29, killing 4 days. As for the experimental part:
(§1) KB oral epithelial cancer cells (purchased from: ATCC) were cultured in DMEM medium supplemented with 10% FBS; NCI-N87 human gastric cancer cells (purchased from: ATCC) were cultured in RPMI1640 medium supplemented with 10% FBS; HT29 human colon cancer cells (purchased from: ATCC) were cultured in RPMI1640 medium supplemented with 10% FBS; and BxPC-3 human pancreatic adenocarcinoma cells (purchased from: ATCC) were cultured in RPMI1640 medium supplemented with 10% FBS.
(§2) Using corresponding media described above and in cell plates, the density of KB cells was adjusted to 2×10^4/mL; the density of NCI-N87 cells was adjusted to 5×10^4/mL; the density of HT29 cells was adjusted to 5×10^4/mL, and the cells were plated onto 96-well transparent flat bottom plates, at 100 µL/well, and cultured overnight; and the density of BxPC-3 cells was adjusted to 5×10^4/mL.
(§3) Samples to be detected were diluted to 20 µM with corresponding media, then 5-fold gradient dilution was performed, and 9 concentrations were obtained. A well having cells but with no any sample added was set as the well showing maximum cell growth; and a well having no cells was set as the well of medium background. The diluted samples were added into the cell plates, at 100 µL/well, which were then incubated in a CO2 incubator for 96 hours. After the incubation, CCK-8 (purchased from: DOJINDO LABORATORIES) prepared beforehand was added into the plates, at 20 µL/well, and after further 3 hours of incubation in the CO2 incubator, OD values at 450 nm were read on a microplate reader.
(§4) Data obtained was fitted to a four-parameter curve using software Prism7, and equation for calculating maximum killing is: maximum killing (%) = 1 - (OD450 value of the well showing maximum killing - OD450 value of the well of medium background) / (OD450 value of the well showing maximum cell growth - OD450 value of the cell of medium background) × 100%. Table 6. Results of comparative study on the activity of camptothecins

Data set [2] deals with KB oral epithelial cancer cells. The experiment in a line: Cell killing activity of camptothecins (CCK-8). It is filed as cell-based. The conditions noted are these: killing 4 days. As for the experimental part:
as §1, §2, §3, §4

The test system of another data set is MC38. The experiment in a line: Proliferation-inhibiting effect on tumor cells (SRB / MTT). It is filed as cell-based. The following applies: Mus musculus, MC-38; MC38, 144 hours; read-out: IC50 (nM, mean ± SD). On the procedure:
(§5) For cells growing by adherence, SRB assay was used to detect effect of antibody-drug conjugates, antibodies, or camptothecins on the proliferation of tumor cells in vitro cultured. A certain number of cells in exponential growth phase were inoculated in 96-well cell culture plates, and when the cells grew by adherence overnight, antibody drug conjugates, antibodies, or camptothecins of different concentrations were added into the cells. 144 hours of incubation later, the cells were fixed with trichloroacetic acid, and then stained with SRB (prepared in 1% glacial acetic acid at a concentration of 4 mg/mL). 10 mM Tris solution was added into each well to solubilize the bound SRB. OD values at 510 nm were read on a microplate reader. [formula]
(§6) For cells growing in suspension, MTT assay was used to detect effect of antibody-drug conjugates, antibodies, or camptothecins on the proliferation of tumor cells in vitro cultured. A certain number of cells in exponential growth phase were inoculated in 96-well cell culture plates, and when the cells grew in suspension overnight, antibody-drug conjugates, antibodies, or camptothecins of different concentrations were added into the cells. 144 hours of incubation later, MTT was added to each well of the plates, and the incubation was continued for 4 hours at 37 °C in a 5% CO2 saturated humidity incubator. Next, 100 µL of SDS-isobutanol-HCl solution was added into each well of the plates, and OD values at 570 nm and 690 nm were read on a microplate reader.
(§7) Half maximal inhibitory concentration (IC50) was calculated from the inhibition (%) at those different concentrations using the software Graphpad Prism 8.0. The experiment was repeated once and the data was expressed as mean ± SD, and a plot of log(concentration) versus inhibition was generated. Table 10. Results of the proliferation-inhibiting effect of ADCs targeting B7-H3 on different tumor cells

In another data set the test system is HT-29. The description is as above. It is filed as cell-based. The conditions noted are these: Homo sapiens; HT-29, 144 hours; read-out: IC50 (nM, mean ± SD). As for the experimental part:
as §5, §6, §7

Another data set deals with SK-OV-3. The data set is described as above. The conditions noted are these: Homo sapiens; SK-OV-3, 144 hours; read-out: IC50 (nM, mean ± SD). The class given is cell-based. On the procedure:
as §5, §6, §7

Another data set deals with PANC 05.04. The description is as above. The class given is cell-based. The conditions noted are these: Homo sapiens; PANC 05.04, 144 hours; read-out: IC50 (nM, mean ± SD). As for the experimental part: as §5, §6, §7
Another data set relates to PANC-1. Described as above. It is filed as cell-based. The following applies: Homo sapiens; PANC-1, 144 hours; read-out: IC50 (nM, mean ± SD). On the procedure: as §5, §6, §7
In another data set the test system is MDA-MB-231. Described as above. The class given is cell-based. The conditions noted are these: Homo sapiens; MDA-MB-231, 144 hours; read-out: IC50 (nM, mean ± SD). As for the experimental part: as §5, §6, §7
The next data set concerns SW626. Described as above. The following applies: Homo sapiens; SW626, 144 hours; read-out: IC50 (nM, mean ± SD). The class given is cell-based. On the procedure:
as §5, §6, §7

Another data set concerns MC38/B7H3. The data set is described as above. It is filed as cell-based. The following applies: Mus musculus, MC-38; MC38/B7H3, 144 hours; read-out: IC50 (nM, mean ± SD). As for the experimental part:
as §5, §6, §7

A further data set concerns Calu-3. Described as above. It is filed as cell-based. The conditions noted are these: Homo sapiens; Calu-3, 144 hours; read-out: IC50 (nM, mean ± SD). As for the experimental part: as §5, §6, §7
Another data set has as its system NCI-N87. The data set is described as above. The class given is cell-based. The conditions noted are these: Homo sapiens; NCI-N87, 144 hours; read-out: IC50 (nM, mean ± SD). As for the experimental part:
as §5, §6, §7

The subject of a further data set is MDA-MB-468. The data set is described as above. It is filed as cell-based. The conditions noted are these: Homo sapiens; MDA-MB-468, 144 hours; read-out: IC50 (nM, mean ± SD). On the procedure: as §5, §6, §7
Another data set relates to BxPC-3. Described as above. The class given is cell-based. The following applies: Homo sapiens; BxPC-3, 144 hours; read-out: IC50 (nM, mean ± SD). As for the experimental part: as §5, §6, §7
The test system of the next data set is ES-2. The description is as above. The class given is cell-based. The conditions noted are these: Homo sapiens; ES-2, 144 hours; read-out: IC50 (nM, mean ± SD). As for the experimental part:
as §5, §6, §7

In the next data set the test system is HCT-116. The data set is described as above. The following applies: Homo sapiens; HCT-116, 144 hours; read-out: IC50 (nM, mean ± SD). The class given is cell-based. On the procedure: as §5, §6, §7
The next data set concerns Calu-6. Described as above. The class given is cell-based. The following applies: Homo sapiens; Calu-6, 144 hours; read-out: IC50 (nM, mean ± SD). On the procedure: as §5, §6, §7
Another data set deals with U-87 MG. The description is as above. The class given is cell-based. The following applies: Homo sapiens, 144 hours, read-out: IC50 (nM, mean ± SD). On the procedure: as §5, §6, §7
For data set [3] the following is noted: Phase I, advanced solid tumors, reported 2021; cited from earlier work.
The target in data set [4] is T1, Recombinant human B7-H3 extracellular domain protein (UniProtKB-Q5ZPR3, amino acids 1-461, C-His tag) (human) (UniProt Q5ZPR3).
T1 sequence (looked up): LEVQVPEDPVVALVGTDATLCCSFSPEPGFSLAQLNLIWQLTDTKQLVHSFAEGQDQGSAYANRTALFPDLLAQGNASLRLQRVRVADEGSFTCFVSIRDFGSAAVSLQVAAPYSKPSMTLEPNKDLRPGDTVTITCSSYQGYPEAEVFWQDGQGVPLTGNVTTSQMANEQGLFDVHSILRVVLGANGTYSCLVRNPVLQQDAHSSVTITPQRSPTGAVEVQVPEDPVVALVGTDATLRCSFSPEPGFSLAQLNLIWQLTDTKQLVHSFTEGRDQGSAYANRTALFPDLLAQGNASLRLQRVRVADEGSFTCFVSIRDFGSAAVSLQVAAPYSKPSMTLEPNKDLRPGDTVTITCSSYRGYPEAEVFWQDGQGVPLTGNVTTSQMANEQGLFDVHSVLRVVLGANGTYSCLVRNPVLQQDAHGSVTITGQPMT
The experiment in a line: BLI (ForteBio Octet QKe), antibody on AHC probes, 60 nM antigen, 1:1 Langmuir fit.

For data set [5], the target named is T2, human B7-H3 naturally expressed on the surface of SKOV3 cells (human) (UniProt Q5ZPR3).
T2 sequence (looked up): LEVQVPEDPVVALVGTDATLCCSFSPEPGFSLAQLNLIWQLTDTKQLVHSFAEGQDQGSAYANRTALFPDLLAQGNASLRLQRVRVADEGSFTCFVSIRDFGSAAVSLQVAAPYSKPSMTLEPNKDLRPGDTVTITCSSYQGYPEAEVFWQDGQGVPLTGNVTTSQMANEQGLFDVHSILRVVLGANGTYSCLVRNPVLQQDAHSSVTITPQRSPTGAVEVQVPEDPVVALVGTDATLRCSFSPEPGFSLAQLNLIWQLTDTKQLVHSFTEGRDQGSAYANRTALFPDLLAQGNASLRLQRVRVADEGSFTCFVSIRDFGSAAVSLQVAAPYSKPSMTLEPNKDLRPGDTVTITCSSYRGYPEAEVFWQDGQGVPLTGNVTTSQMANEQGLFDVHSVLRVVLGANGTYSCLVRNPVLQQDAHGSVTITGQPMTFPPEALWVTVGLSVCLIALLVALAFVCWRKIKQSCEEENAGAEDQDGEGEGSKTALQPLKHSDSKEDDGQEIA
Description: flow cytometry (MFI) on SKOV3 cells naturally expressing human B7-H3.

We go through three molecules from patent EP4721767A1 (priority 2023, dated 2024).

Turning to `CC[C@@]1(O)C(=O)OCc2c1cc1n(c2=O)Cc2c-1nc1ccc(N)c3c1c2C(F)(F)CC3` [Compound 3], the “Maximum Killing (%)” value in data set [1] stood at 90.6%; in data set [2] it was 95.6%. For the same molecule, the EC50 stood at 6.04 nM in [1] (Homo sapiens, HT-29, 96 h) and 7.47 nM in data set [2] (96 h). Moreover, the IC50 came to 3.27 ± 0.75 nM with MC38; 0.62 nM in the data set with HT-29; 1.05 ± 0.48 nM with SK-OV-3; 0.35 ± 0.19 nM in the data set on PANC 05.04; 0.82 ± 0.16 nM in the data set with PANC-1; 0.59 ± 0.03 nM in the data set with MDA-MB-231. Further, the IC50 in the data set on SW626 turned out to be 3.08 ± 0.63 nM; in the data set with MC38/B7H3 it was 4.67 ± 1.98 nM; with Calu-3, 0.44 ± 0.1 nM; with NCI-N87, 1.26 ± 0.13 nM; with MDA-MB-468, 0.21 ± 0.11 nM; in the data set with BxPC-3 it was 0.26 ± 0.09 nM. For the same molecule, the IC50 was 0.21 ± 0.08 nM with ES-2, 0.3 nM in the data set on HCT-116, 0.25 ± 0.06 nM in the data set on Calu-6 and 3.72 ± 0.01 nM in the data set on U-87 MG.

B1: MGC018: MacroGenics ADC: anti-B7-H3 humanized IgG1 monoclonal antibody conjugated to Duocarmycin (DUBA) via a cleavable linker, average DAR 2.7 (conjugate, chains of the INN, looked up)
VH: EVQLVESGGGLVKPGGSLRLSCAASGFTFSSYGMSWVRQAPGKGLEWVATINSGGSNTYYPDSLKGRFTISRDNAKNSLYLQMNSLRAEDTAVYYCARHDGGAMDYWGQGTTVTVSS
VL: DIQMTQSPSSLSASVGDRVTITCRASESIYSYLAWYQQKPGKAPKLLVYNTKTLPEGVPSRFSGSGSGTDFTLTISSLQPEDFATYYCQHHYGTPPWTFGQGTRLEIK
modifications: duocarmycin (DUBA) payload, cleavable linker, DAR 2.7
On to B1, for which, in [3], the “Grade 3 and higher treatment-related adverse events (TRAEs)” value is given as 50%; the “patients with Grade 3 and higher treatment-related adverse events (TRAEs)” value is 43 patients; the “severe TRAE neutropenia” value is reported as 22.1%; the “severe TRAE thrombocytopenia” value is listed as 7%.

B2: Control antibody hum30 (antibody, from another filing, V domains shown)
VH: QVQLVQSGAEVKKPGSSVKVSCKASGYTFTNYVMHWVRQAPGQGLEWMGYINPYNDDVKYNEKFKGRVTITADESTSTAYMELSSLRSEDTAVYYCARWGYYGSPLYYFDYWGQGTLVTVSS
VL: EIVLTQSPATLSLSPGERATLSCRASSRLIYMHWYQQKPGQAPRPLIYATSNLASGIPARFSGSGSGTDFTLTISSLEPEDFAVYYCQQWNSNPPTFGQGTKVEIK
Take B2: in [4], the Kd turned out to be 0.344 nM, the koff came out at 0.000324 s⁻¹ and the kon was 941000 M⁻¹ s⁻¹. Besides, the EC50 in [5] was 1.22 nM.
